For six compounds, IC50 results are on record in ChEMBL document CHEMBL3098090, “Cytotoxic activity of gypenosides and gynogenin against non-small cell lung carcinoma A549 cells” (Bioorg Med Chem Lett, 2014).

The experiment concerns A549. The experiment is described as follows: Cytotoxicity against human A549 cells after 48 hrs by MTT assay. Conditions: A549, 48 h. The class given is functional, cell-based.

The structures appear in SMILES notation. ≈ marks a conversion by molar mass, not a printed value.

The term IC50 denotes the point on the concentration scale where inhibition reaches its midpoint. Read a low IC50 as higher potency. `CC(C)=CCC[C@](C)(O[C@@H]1O[C@H](CO)[C@@H](O)[C@H](O)[C@H]1O)[C@H]1CC[C@]2(C)[C@@H]1[C@H](O)C[C@@H]1[C@@]3(C)C[C@@H](O)[C@H](O[C@@H]4O[C@H](CO)[C@@H](O)[C@H](O)[C@H]4O[C@@H]4O[C@H](CO)[C@@H](O)[C@H](O)[C@H]4O)C(C)(C)[C@@H]3CC[C@]12C` returned an IC50 of 52.6 mg/L (≈ 54.6 µM).

For `CC(C)=CCC[C@](C)(O[C@@H]1O[C@H](CO[C@@H]2OC[C@@H](O)[C@H](O)[C@H]2O)[C@@H](O)[C@H](O)[C@H]1O)[C@H]1CC[C@]2(C)[C@@H]1[C@H](O)C[C@@H]1[C@@]3(C)C[C@@H](O)[C@H](O[C@@H]4O[C@H](CO)[C@@H](O)[C@H](O)[C@H]4O[C@@H]4O[C@H](CO)[C@@H](O)[C@H](O)[C@H]4O)C(C)(C)[C@@H]3CC[C@]12C`, the IC50 was 106 mg/L (≈ 96.7 µM). Regarding `CC(C)=CCC[C@](C)(O)[C@H]1CC[C@]2(C)[C@@H]1[C@H](O)C[C@@H]1[C@@]3(C)C[C@@H](O)[C@H](O[C@@H]4O[C@H](CO)[C@@H](O)[C@H](O)[C@H]4O[C@@H]4O[C@H](CO)[C@@H](O)[C@H](O)[C@H]4O)C(C)(C)[C@@H]3CC[C@]12C`, the concentration for half-maximal inhibition (IC50) was determined as 34.9 mg/L (≈ 43.6 µM). Consider `CC(C)=CCC[C@@](C)(O)[C@H]1CC[C@]2(C)[C@@H]1[C@H](O)C[C@@H]1[C@@]3(C)C[C@@H](O)[C@H](O[C@@H]4O[C@H](CO)[C@@H](O)[C@H](O)[C@H]4O[C@@H]4O[C@H](CO)[C@@H](O)[C@H](O)[C@H]4O)C(C)(C)[C@@H]3CC[C@]12C`, for which half-maximal inhibition (IC50) required 51 mg/L (≈ 63.6 µM). In the case of `CC(C)=CCC[C@](C)(O)[C@H]1CC[C@]2(C)[C@@H]1[C@H](O)C[C@@H]1[C@@]3(C)C[C@@H](O)[C@H](O)C(C)(C)[C@@H]3CC[C@]12C`, the IC50 was 12.5 mg/L (≈ 26.3 µM). To `CC(C)=CCC[C@](C)(O)[C@H]1CC[C@]2(C)[C@@H]1[C@H](O)C[C@@H]1[C@@]3(C)CC[C@H](O[C@@H]4O[C@H](CO)[C@@H](O)[C@H](O)[C@H]4O[C@@H]4O[C@H](CO)[C@@H](O)[C@H](O)[C@H]4O)C(C)(C)[C@@H]3CC[C@]12C` belongs 55.4 mg/L (≈ 70.5 µM).
